Results from PMC7875911 (Frontiers in Pharmacology, 2021).

What was measured:
[1] = test system: c-fibre evoked excitatory post-synaptic currents; settings: cited from earlier work
Nav1.7 = settings: cited from earlier work
Excerpt: Loss-of-function mutation of the SCN9A gene that codes for Nav1.7 leads to congenital insensitivity to pain ([Cox et al., 2006]), whereas SCN9A gain-of-function mutations causes paroxysmal extreme pain disorder and primary erythromelalgia ([Dib-Hajj et al., 2008]). […] Homology of VGIC voltage sensing domains, and particularly those of Nav channels, is at the crux of the development of genuinely selective Nav1.7 modulators ([Kingwell, 2019]). Given the VSD functional importance in neuronal VGICs and their structural homology, it is not surprising that VDPs target related channel families. […] Mammalian Nav and Cav α-subunits are structurally homologous but differ in their gating mechanisms ([Kubota et al., 2017]).

mCav1.2 = assay: Whole-cell patch clamp, recombinant mCav1.2 in HEK293; type: cell-based, mouse; settings: 10 µM
Experimental: (§1) Human embryonic kidney (HEK293T) cells containing the SV40 Large T-antigen were cultured at 37°C, 5% CO2 in Dulbecco’s Modified Eagle’s Medium (DMEM, Invitrogen Life Technologies, Australia), supplemented with 10% fetal bovine serum (FBS, Bovigen, Australia), 1% GlutaMAX and penicillin-streptomycin (Invitrogen, Australia). […]
(§2) Depolarization-activated Ca^2+ currents (ICa) in transfected HEK293 cells were recorded in the whole-cell patch clamp configuration. Data were recorded using a MultiClamp 700B amplifier, digitized with a DigiData1440 and controlled using Clampex10.7 software (Molecular Devices, United States). […]
(§3) Statistical significance (p < 0.05) was determined using unpaired Student’s t-test or 1-way ANOVA followed by a Tukey multiple comparison. […]
(§4) Numerous HVA Cav channel isoforms are present in rat DRG neurons. […] We transiently co-transfected the individual Cav channel α-subunits of interest together with β3 and α2δ1 subunits in HEK293 cells and measured whole-cell I Ca currents by patch clamp. […]

animal pain models = settings: in vivo, cited from earlier work
Excerpt: […]. Nav channels are structurally related to voltage-gated calcium (Cav) channels, Cav1 and Cav2. […] […].

rCav1.3 = assay: Whole-cell patch clamp, recombinant rCav1.3 in HEK293; type: cell-based, rat; settings: 10 µM
Experimental: as §1, §2, §3, §4

## CSCC[C@@H]1NC(=O)[C@H](Cc2ccc(O)cc2)NC(=O)[C@H](CCCNC(=N)N)NC(=O)[C@@H](NC(=O)[C@@H](N)CC(=O)O)CSSC[C@@H]2NC(=O)[C@@H]3CSSC[C@@H](C(=O)N[C@@H](C)C(=O)N[C@@H](Cc4c[nH]c5ccccc45)C(=O)N[C@@H](CC(=O)O)C(=O)N[C@@H](Cc4ccccc4)C(=O)N[C@H](C(=O)N[C@@H](Cc4ccccc4)C(=O)N[C@H](C(=O)O)[C@@H](C)O)[C@@H](C)O)NC(=O)[C@H](Cc4ccc(O)cc4)NC(=O)[C@H](CCCCN)NC(=O)[C@H](CCSC)NC(=O)[C@H](CCCCN)NC(=O)[C@H](CCCNC(=N)N)NC(=O)[C@H](CCCCN)NC(=O)[C@H](CSSC[C@H](NC(=O)[C@H](CC(=O)O)NC(=O)CNC(=O)[C@H](Cc4ccccc4)NC1=O)C(=O)N[C@@H](CCC(=O)O)C(=O)N[C@@H](CCCCN)C(=O)N[C@@H](CC(=O)O)C(=O)N[C@@H](CCC(=O)O)C(=O)N[C@@H](CC(=O)O)C(=O)N3)NC(=O)CNC(=O)[C@H](CC(C)C)NC(=O)[C@H](Cc1c[nH]cn1)NC(=O)[C@H](CCCCN)NC2=O [Pn3a, µ-Theraphotoxin-Pn3a]
[1]
  effect on c-fibre evoked excitatory post-synaptic currents (in words): reduce c-fibre evoked excitatory post-synaptic currents
Nav1.7
  effect on Nav1.7 SSI (in words): […]
  effect on Nav1.7 voltage dependence of activation (in words): […]
  time to steady-state Nav1.7 block: […]
Nav1.7; read-out: IC 50 for Nav1.7
  IC50: […]
mCav1.2
  inhibition of Cav1.2-mediated current: 70.3 ± 1.5%
Animal pain models; 1 mg/kg
  analgesia/anti-allodynia on co-administration with opioids (in words): […]
Animal pain models
  analgesia in various animal pain models (in words): fails to produce analgesia
  effect in rodent models of acute nociception or inflammatory pain (in words): ineffective
rCav1.3
  inhibition of Cav1.3-mediated current: 65.6 ± 1.8%
